Columns and labels:
[1] = tested on: mixed lymphocyte reaction in popliteal lymph node; assay: popliteal lymph node (PLN) test procedure, in vivo mixed lymphocyte reaction; design: species or system mouse (BALB/c donors, C3H mice recipients); details: for PLN (ratio): p.o. daily Day 0 to Day 4, calculation described in b30 (formula not shown)
Description: (§1) Immunosuppressive activity was evaluated in an in vitro standard pharmacological test procedure to measure lymphocyte proliferation (LAF) and in two in vivo standard pharmacological test procedures. The first in vivo procedure was a popliteal lymph node (PLN) test procedure which measured the effect of compounds of this invention on a mixed lymphocyte reaction and the second in vivo procedure evaluated the survival time of a pinch skin graft.
A mixed lymphocyte reaction (MLR) occurs when lymphoid cells from genetically distinct animals are combined in tissue culture. Each stimulates the other to undergo blast transformation which results in increased DNA synthesis that can be quantified by the incorporation of tritiated thymidine. Since stimulating a MLR is a function of disparity at Major Histocompatibility antigens, an in vivo popliteal lymph node (PLN) test procedure closely correlates to host vs. graft disease. Briefly, irradiated spleen cells from BALB/c donors are injected into the right hind foot pad of recipient C3H mice. The drug is given daily, p.o. from Day 0 to Day 4. On Day 3 and Day 4, tritiated thymidine is given i.p., b.i.d. On Day 5, the hind popliteal lymph nodes are removed and dissolved, and radioactivity counted. The corresponding left PLN serves as the control for the PLN from the injected hind foot. Percent suppression is calculated using the non-drug treated animals as allogenic control. […] Results are expressed by the following ratio: [formula]

[2] = tested on: thymocyte proliferation (cells from the thymus of normal BALB/c mice, PHA and IL-1); assay: comitogen-induced thymocyte proliferation procedure (LAF); assay type: cell-based; details: for LAF (ratio): calculation described in b29 (formula not shown)
Description: as §1
Briefly, cells from the thymus of normal BALB/c mice are cultured for 72 hours with PHA and IL-1 and pulsed with tritiated thymidine during the last six hours. […] Cells are harvested and incorporated; radioactivity is determined. Inhibition of lymphoproliferation is assessed in percent change in counts per minute from non-drug treated controls. The results are expressed by the following ratio, or as the IC50, expressed in nM. [formula]

[3] = tested on: pinch skin graft from male DBA/2 donors transplanted to male BALB/c recipients; assay: survival time of pinch skin graft; assay type: in vivo, mouse (DBA/2 donors; details: intraperitoneally; days to rejection
Description: as §1
The second in vivo test procedure is designed to determine the survival time of pinch skin graft from male DBA/2 donors transplanted to male BALB/c recipients. The method is adapted from Billingham R. E. and Medawar P. B., J. Exp. Biol. 28:385-402, (1951). Briefly, a pinch skin graft from the donor is grafted on the dorsum of the recipient as a homograft, and an autograft is used as control in the same region. […] Untreated recipients serve as rejection control. The graft is monitored daily and observations are recorded until the graft becomes dry and forms a blackened scab. This is considered as the rejection day. The mean graft survival time (number of days±S.D.) of the drug treatment group is compared with the control group.

[4] = tested on: organ grafts in histoincompatible rodents; details: cited from earlier work
[5] = tested on: formation of IgE-like antibodies; details: cited from earlier work
[6] = tested on: experimental allergic encephalomyelitis model, a model for multiple sclerosis; details: in vivo; cited from earlier work
Candida albicans = details: particularly against Candida albicans, both in vitro and in vivo; cited from earlier work

Compound	PLN (ratio) [1]	LAF (ratio) [2]	Skin Graft (mean graft survival time) [3]	survival time of organ grafts [4]	inhibition of the formation of IgE-like antibodies [5]	effect in experimental allergic encephalomyelitis model [6]	Percent suppression in PLN ([1]; 6 mg/kg, p.o., vs non-drug treated allogenic control) [%]	IC50 ([2]; Mus musculus, Thymocyte, read-out: LAF IC50) [nM]	antifungal activity (Candida albicans)
CO[C@H]1C[C@@H]2CC[C@@H](C)[C@@](O)(O2)C(=O)C(=O)N2CCCC[C@H]2C(=O)O[C@H]([C@H](C)C[C@@H]2CC[C@@H](OC(=O)CC[C@H](NC(=O)OCc3ccccc3)C(=O)O[C@@H]3CC[C@@H](C[C@@H](C)[C@@H]4CC(=O)[C@H](C)/C=C(\C)[C@@H](O)[C@@H](OC)C(=O)[C@H](C)C[C@H](C)/C=C/C=C/C=C(\C)[C@@H](OC)C[C@@H]5CC[C@@H](C)[C@@](O)(O5)C(=O)C(=O)N5CCCC[C@H]5C(=O)O4)C[C@H]3OC)[C@H](OC)C2)CC(=O)[C@H](C)/C=C(\C)[C@@H](O)[C@@H](OC)C(=O)[C@H](C)C[C@H](C)/C=C/C=C/C=C/1C [Example 1, Rapamycin-42,42'-diester with N-[(phenylmethoxy)carbonyl]-L-glutamic acid]	0.45	0.53	10.2 ± 0.4 days ± SD	–	–	–	–	–	–
CO[C@H]1C[C@@H]2CC[C@@H](C)[C@@](O)(O2)C(=O)C(=O)N2CCCC[C@H]2C(=O)O[C@H]([C@H](C)C[C@@H]2CC[C@@H](O)[C@H](OC)C2)CC(=O)[C@H](C)/C=C(\C)[C@@H](O)[C@@H](OC)C(=O)[C@H](C)C[C@H](C)/C=C/C=C/C=C/1C [Rapamycin, rapamycin]	–	–	12.0 ± 1.7 days ± SD	prolong survival time of organ grafts	effectively inhibited the formation of IgE-like antibodies	effective	86	8.7	antifungal activity, particularly against Candida albicans, both in vitro and in vivo
CO[C@H]1C[C@@H]2CC[C@@H](C)[C@@](O)(O2)C(=O)C(=O)N2CCCC[C@H]2C(=O)O[C@H]([C@H](C)C[C@@H]2CC[C@@H](OC(=O)C[C@H](NC(=O)OCc3ccccc3)C(=O)O[C@@H]3CC[C@@H](C[C@@H](C)[C@@H]4CC(=O)[C@H](C)/C=C(\C)[C@@H](O)[C@@H](OC)C(=O)[C@H](C)C[C@H](C)/C=C/C=C/C=C(\C)[C@@H](OC)C[C@@H]5CC[C@@H](C)[C@@](O)(O5)C(=O)C(=O)N5CCCC[C@H]5C(=O)O4)C[C@H]3OC)[C@H](OC)C2)CC(=O)[C@H](C)/C=C(\C)[C@@H](O)[C@@H](OC)C(=O)[C@H](C)C[C@H](C)/C=C/C=C/C=C/1C [Example 2, Rapamycin 42-42'-diester with N-[(phenylmethoxycarbonyl)]-L-aspartic acid]	0.45	0.32	10.7 ± 0.2 days ± SD	–	–	–	–	–	–

From US5162333A, “Aminodiesters of rapamycin” (American Home Products Corporation, priority 1991, dated 1992)
